We go through 4 molecules from PMC9866728, “Dosing Methods to Enable Cell-Based In Vitro Testing of Complex Substances: A Case Study with a PAH Mixture” (Toxics, 2022).

For data set [1] the following is noted: Table S1; ref PubChem; cited from earlier work.
The conditions of data set [2]: Smith et al. O-Rings; ref Smith et al. 2010 [24]; cited from earlier work.
A short description of data set [3]: Recovery over time from exposure to cell culture media without cells (GC-MS/MS). It counts as physicochemical.
Data set [4] in a line: Loading kinetics of silicone micro-O-rings from methanol PAH solution (GC-MS/MS). Format: physicochemical.
For data set [5] the following is noted: O-ring loading rate constant, larger O-rings; ref Smith et al. 2010 [24]; cited from earlier work.
[6] abbreviates: MAF (400 ng/mL each PAH), one phase decay fit of nominal recovery.
[7] abbreviates: MAF (400 ng/mL each PAH), one phase decay fit of nominal recovery (text: ng/mL).
[8] abbreviates: O-Rings (loaded in 10 µg/mL PAH solution), one phase association fit of nominal recovery.
Setting [9] is: O-Rings, one phase association fit.
[10] abbreviates: O-Rings, one phase association fit (desorption into media).
Where [11] appears, read: Solvent Extract (DMSO, 15 ng/mL each PAH), one phase decay fit of nominal recovery.
Setting [12] is: Solvent Extract (DMSO, 15 ng/mL each PAH), one phase decay fit of nominal recovery (text: ng/mL).
The mark [13] stands for this setting: Solvent Extract, one phase decay fit.
[14] abbreviates: loading rate constant, one-phase association (h^-1), 10 µg/mL PAH mix in methanol.
[15] abbreviates: one-phase association fit of nominal Csilicone (µg/mL per Eq 1), 10 µg/mL PAH mix in methanol.
Setting [16] is: one-phase association fit of nominal Csilicone, 10 µg/mL PAH mix in methanol, 0-24 h.
[17] abbreviates: one-phase association fit, micro-O-ring absorption.

The structures appear in SMILES notation. Where two headings read alike, the source gives them in different places.

Turning to `c1ccc2cc3ccccc3cc2c1` [Anthracene], the “LogKow (PubChem)” value in data set [1] is recorded as 4.45. Also, the K in data set [2] is reported as 2.3; in data set [3] (MAF, one phase decay fit) it was 0.9206; in data set [3] (setting [10]) it was 4.022; in data set [3] (setting [13]), 0.5624. For the same molecule, the Y0 in data set [3] (setting [6]) is recorded as 398.5; in data set [3] (setting [8]) it was -0.1844; in data set [3] (setting [11]), 14.66; in data set [4] (setting [16]), 0. The Plateau in data set [3] (setting [7]) is listed as 49.04; in data set [3] (setting [8]), 0.3725; in data set [3] (setting [12]) it was 2.703. For the same molecule, the Span in data set [3] (MAF, one phase decay fit) is 349.4; in data set [3] (setting [9]) it was 0.5569; in data set [3] (setting [13]), 11.96. In addition, the Tau worked out at 1.086 in data set [3] (MAF, one phase decay fit); 0.2486 in data set [3] (setting [9]); 1.778 in data set [3] (setting [13]). In data set [3] (setting [9]), this molecule yielded a Half-time of 0.1723. In addition, the “K Value” in data set [4] (setting [14]) turned out to be 27.2512. Further, the “Plateau Value” in data set [4] (setting [15]) was 0.255. In addition, the “Half-time Value” in data set [4] (setting [17]) amounted to 0.02544. Moreover, in data set [4] (setting [17]), the “Span Value” is listed as 0.255. Besides, the “Tau Value” in data set [4] (setting [17]) is given as 0.0367. Moreover, the “Smith et al. 2010 K Value” in data set [5] is reported as 1.82.

Take `c1ccc2c(c1)cc1ccc3cccc4ccc2c1c34` [Benzo[a]pyrene]: the “LogKow (PubChem)” value in data set [1] is 6.13. In addition, the K was 0.57 in data set [2]; 0.5026 in data set [3] (MAF, one phase decay fit); 0.418 in data set [3] (setting [10]); 0.1275 in data set [3] (setting [13]). For the same molecule, the Y0 in data set [3] (setting [6]) is reported as 391.4; in data set [3] (setting [8]), 0.02292; in data set [3] (setting [11]), 15.28; in data set [4] (setting [16]), 0. Further, the Plateau worked out at 203.9 in data set [3] (setting [7]), 1.337 in data set [3] (setting [8]) and 6.176 in data set [3] (setting [12]). The Span is reported as 187.5 in data set [3] (MAF, one phase decay fit); 1.314 in data set [3] (setting [9]); 9.105 in data set [3] (setting [13]). Moreover, the Tau in data set [3] (MAF, one phase decay fit) is 1.989; in data set [3] (setting [9]) it was 2.392; in data set [3] (setting [13]), 7.845. For the same molecule, the Half-time in data set [3] (setting [9]) is listed as 1.658. In data set [4] (setting [14]), the “K Value” is 33.8629. In addition, in data set [4] (setting [15]), the “Plateau Value” is 0.1047. Further, the “Half-time Value” in data set [4] (setting [17]) is on record as 0.02047. Besides, the “Span Value” in data set [4] (setting [17]) stood at 0.1047. Moreover, the “Tau Value” in data set [4] (setting [17]) turned out to be 0.02953. Moreover, the “Smith et al. 2010 K Value” in data set [5] is listed as 1.32.

Turning to `c1ccc2c(c1)-c1cccc3cccc-2c13` [Fluoranthene], in data set [1], the “LogKow (PubChem)” value is on record as 5.16. Besides, the K is 0.93 in data set [2]; 0.2998 in data set [3] (MAF, one phase decay fit); 1.167 in data set [3] (setting [10]); 0.372 in data set [3] (setting [13]). The Y0 in data set [3] (setting [6]) is listed as 391.9; in data set [3] (setting [8]), -0.1202; in data set [3] (setting [11]), 14.59; in data set [4] (setting [16]), 0. The Plateau came out at 86.09 in data set [3] (setting [7]), 0.9705 in data set [3] (setting [8]) and 2.835 in data set [3] (setting [12]). The Span was 305.9 in data set [3] (MAF, one phase decay fit); 1.091 in data set [3] (setting [9]); 11.75 in data set [3] (setting [13]). The Tau came out at 3.336 in data set [3] (MAF, one phase decay fit); 0.857 in data set [3] (setting [9]); 2.688 in data set [3] (setting [13]). For the same molecule, in data set [3] (setting [9]), the Half-time is given as 0.594. The “K Value” in data set [4] (setting [14]) amounted to 23.4013. In addition, in data set [4] (setting [15]), the “Plateau Value” is reported as 0.3327. For the same molecule, the “Half-time Value” in data set [4] (setting [17]) amounted to 0.02962. Further, the “Span Value” in data set [4] (setting [17]) is given as 0.3327. In data set [4] (setting [17]), the “Tau Value” is listed as 0.04273. Besides, the “Smith et al. 2010 K Value” in data set [5] is 1.41.

On to `c1cc2ccc3cccc4ccc(c1)c2c34` [Pyrene], for which the K in data set [2] was 1.04. The molecule also registered a Half-time in data set [3] of 0.6521. Besides, in data set [4], the “Half-time Value” is given as 0.03121, the “K Value” was 22.209, the “Plateau Value” is given as 0.4017 and the “Span Value” came out at 0.4017. For the same molecule, in data set [4], the “Tau Value” is given as 0.04503 and the Y0 stood at 0. Further, in data set [5], the “Smith et al. 2010 K Value” is recorded as 1.35.
